Experimental data taken from patent publication US20250262336A1, “[177LU] LUTETIUM-PSMA I&T COMPOSITION AND DOSIMETRY, KIT, METHOD OF MAKING, AND METHOD OF USING THEREOF” (Curium US LLC, priority 2023, published 2025).

Experiment: Cycle 3 biodistribution and dosimetry (SPECT/CT, single or multiple time points)
Format: in vivo, human
Description: (§1) To evaluate potential changes in the tracer's kinetics and uptake after multiple treatment cycles, 16 of the 27 patients included in the dosimetry sub study, were imaged at both cycle 1 and cycle 3. Among these, at cycle 3, three patients were imaged at all 4 timepoints and the other 13 were imaged at one or two timepoints only (24 h, 48 h or both 24 h and 48 h) (Table 2). For these 13 patients, the TACs obtained at cycle 1 were used for each source organ and scaled to the normalized activity value(s) measured at Cycle 3. For patients imaged at two timepoints, the TACs were preferably scaled using the average scaling factor between the two timepoints.
A subgroup of 16 out of the 27 patients underwent and additional dosimetry assessment at Cycle 3. Among these, three patients had dosimetry performed based on images taken at 4 timepoints, while the remaining patients had dosimetry performed at 1 or 2 imaging timepoints only.
as §1, with “7 in Appendix 1).” for “2).”
A subgroup of 16 out of the 27 patients underwent and additional dosimetry assessment at Cycle 3. Among these, three patients had dosimetry performed based on images taken at 4 timepoints, while the remaining patients had dosimetry performed at 1 or 2 imaging timepoints only, as described in Section 4.4.1.

[1] = Lacrimal Glands (OLINDA sphere model), N = 16

O=C(O)CC[C@H](NC(=O)N[C@@H](CCCCNC(=O)CCCCCCC(=O)NCCCC[C@@H](NC(=O)[C@@H](Cc1ccccc1)NC(=O)[C@@H](Cc1ccc(O)c(I)c1)NC(=O)CC[C@H](C(=O)O)N1CCN(CC(=O)O)CCN(CC(=O)O)CCN(CC(=O)O)CC1)C(=O)O)C(=O)O)C(=O)O [^177Lu-PSMA-I&T, (3S,7 S,26R,29R,32R,37R)-29-benzyl-32-(4-hydroxy-3-iodobenzyl)-5,13,20,28,31,34-hexaoxo-37-(4,7,10-tris(carboxymethyl)-1,4,7,10-tetraazacyclododecan-1-yl)-4,6,12,21,27,30,33-heptaazaheptatriacontane-1,3,7,26,37-pentacarboxylic acid; lutetium-177 (III), metal not drawn]
Absorbed Dose in Cycle 3, Mean (Adrenals, N = 16): 0.02 Gy/GBq | Absorbed Dose in Cycle 3, max (Adrenals, N = 16): 0.03 Gy/GBq | Absorbed Dose in Cycle 3, min (Adrenals, N = 16): 0.01 Gy/GBq | Absorbed Dose in Cycle 3, Mean (Brain, N = 16): 0.01 Gy/GBq | Absorbed Dose in Cycle 3, max (Brain, N = 16): 0.02 Gy/GBq | Absorbed Dose in Cycle 3, min (Brain, N = 16): 0.00 Gy/GBq | Absorbed Dose in Cycle 3, Mean (Esophagus, N = 16): 0.01 Gy/GBq | Absorbed Dose in Cycle 3, max (Esophagus, N = 16): 0.02 Gy/GBq | Absorbed Dose in Cycle 3, min (Esophagus, N = 16): 0.00 Gy/GBq | Absorbed Dose in Cycle 3, Mean (Eyes, N = 16): 0.01 Gy/GBq | Absorbed Dose in Cycle 3, max (Eyes, N = 16): 0.02 Gy/GBq | Absorbed Dose in Cycle 3, min (Eyes, N = 16): 0.00 Gy/GBq | Absorbed Dose in Cycle 3, Mean (Gallbladder wall, N = 16): 0.01 Gy/GBq | Absorbed Dose in Cycle 3, max (Gallbladder wall, N = 16): 0.02 Gy/GBq | Absorbed Dose in Cycle 3, min (Gallbladder wall, N = 16): 0.00 Gy/GBq | Absorbed Dose in Cycle 3, Mean (Heart wall, N = 16): 0.01 Gy/GBq | Absorbed Dose in Cycle 3, max (Heart wall, N = 16): 0.02 Gy/GBq | Absorbed Dose in Cycle 3, min (Heart wall, N = 16): 0.00 Gy/GBq | Absorbed Dose in Cycle 3, Mean (Kidneys, N = 16): 0.49 Gy/GBq | Absorbed Dose in Cycle 3, max (Kidneys, N = 16): 0.85 Gy/GBq | Absorbed Dose in Cycle 3, min (Kidneys, N = 16): 0.19 Gy/GBq | Absorbed Dose in Cycle 3, Mean [1]: 0.29 Gy/GBq | Absorbed Dose in Cycle 3, max [1]: 0.73 Gy/GBq | Absorbed Dose in Cycle 3, min [1]: 0.10 Gy/GBq | Absorbed Dose in Cycle 3, Mean (Left colon, N = 16): 0.41 Gy/GBq | Absorbed Dose in Cycle 3, max (Left colon, N = 16): 0.94 Gy/GBq | Absorbed Dose in Cycle 3, min (Left colon, N = 16): 0.07 Gy/GBq | Absorbed Dose in Cycle 3, Mean (Liver, N = 16): 0.06 Gy/GBq | Absorbed Dose in Cycle 3, max (Liver, N = 16): 0.15 Gy/GBq | Absorbed Dose in Cycle 3, min (Liver, N = 16): 0.00 Gy/GBq | Absorbed Dose in Cycle 3, Mean (Lungs, N = 16): 0.01 Gy/GBq | Absorbed Dose in Cycle 3, max (Lungs, N = 16): 0.02 Gy/GBq | Absorbed Dose in Cycle 3, min (Lungs, N = 16): 0.00 Gy/GBq | Absorbed Dose in Cycle 3, Mean (Osteogenic cells, N = 16): 0.02 Gy/GBq | Absorbed Dose in Cycle 3, max (Osteogenic cells, N = 16): 0.09 Gy/GBq | Absorbed Dose in Cycle 3, min (Osteogenic cells, N = 16): 0.00 Gy/GBq | Absorbed Dose in Cycle 3, Mean (Pancreas, N = 16): 0.01 Gy/GBq | Absorbed Dose in Cycle 3, max (Pancreas, N = 16): 0.02 Gy/GBq | Absorbed Dose in Cycle 3, min (Pancreas, N = 16): 0.00 Gy/GBq | Absorbed Dose in Cycle 3, Mean (Prostate, N = 16): 0.01 Gy/GBq | Absorbed Dose in Cycle 3, max (Prostate, N = 16): 0.02 Gy/GBq | Absorbed Dose in Cycle 3, min (Prostate, N = 16): 0.01 Gy/GBq | Absorbed Dose in Cycle 3, Mean (Rectum, N = 16): 0.39 Gy/GBq | Absorbed Dose in Cycle 3, max (Rectum, N = 16): 0.90 Gy/GBq | Absorbed Dose in Cycle 3, min (Rectum, N = 16): 0.06 Gy/GBq | Absorbed Dose in Cycle 3, Mean (Red Marrow, N = 16): 0.03 Gy/GBq | Absorbed Dose in Cycle 3, max (Red Marrow, N = 16): 0.17 Gy/GBq | Absorbed Dose in Cycle 3, min (Red Marrow, N = 16): 0.00 Gy/GBq | Absorbed Dose in Cycle 3, Mean (Right Colon, N = 16): 0.22 Gy/GBq | Absorbed Dose in Cycle 3, max (Right Colon, N = 16): 0.51 Gy/GBq | Absorbed Dose in Cycle 3, min (Right Colon, N = 16): 0.04 Gy/GBq | Absorbed Dose in Cycle 3, Mean (Salivary Glands, N = 16): 0.20 Gy/GBq | Absorbed Dose in Cycle 3, max (Salivary Glands, N = 16): 0.69 Gy/GBq | Absorbed Dose in Cycle 3, min (Salivary Glands, N = 16): 0.04 Gy/GBq | Absorbed Dose in Cycle 3, Mean (Small intestine, N = 16): 0.04 Gy/GBq | Absorbed Dose in Cycle 3, max (Small intestine, N = 16): 0.10 Gy/GBq | Absorbed Dose in Cycle 3, min (Small intestine, N = 16): 0.01 Gy/GBq | Absorbed Dose in Cycle 3, Mean (Spleen, N = 16): 0.03 Gy/GBq | Absorbed Dose in Cycle 3, max (Spleen, N = 16): 0.12 Gy/GBq | Absorbed Dose in Cycle 3, min (Spleen, N = 16): 0.01 Gy/GBq | Absorbed Dose in Cycle 3, Mean (Stomach Wall, N = 16): 0.01 Gy/GBq | Absorbed Dose in Cycle 3, max (Stomach Wall, N = 16): 0.02 Gy/GBq | Absorbed Dose in Cycle 3, min (Stomach Wall, N = 16): 0.00 Gy/GBq | Absorbed Dose in Cycle 3, Mean (Testes, N = 16): 0.01 Gy/GBq | Absorbed Dose in Cycle 3, max (Testes, N = 16): 0.02 Gy/GBq | Absorbed Dose in Cycle 3, min (Testes, N = 16): 0.00 Gy/GBq | Absorbed Dose in Cycle 3, Mean (Thymus, N = 16): 0.01 Gy/GBq | Absorbed Dose in Cycle 3, max (Thymus, N = 16): 0.02 Gy/GBq | Absorbed Dose in Cycle 3, min (Thymus, N = 16): 0.00 Gy/GBq | Absorbed Dose in Cycle 3, Mean (Thyroid, N = 16): 0.01 Gy/GBq | Absorbed Dose in Cycle 3, max (Thyroid, N = 16): 0.02 Gy/GBq | Absorbed Dose in Cycle 3, min (Thyroid, N = 16): 0.00 Gy/GBq | Absorbed Dose in Cycle 3, Mean (Total Body, N = 16): 0.02 Gy/GBq | Absorbed Dose in Cycle 3, max (Total Body, N = 16): 0.03 Gy/GBq | Absorbed Dose in Cycle 3, min (Total Body, N = 16): 0.01 Gy/GBq | Absorbed Dose in Cycle 3, Mean (Urinary Bladder wall, N = 16): 0.45 Gy/GBq | Absorbed Dose in Cycle 3, max (Urinary Bladder wall, N = 16): 0.70 Gy/GBq | Absorbed Dose in Cycle 3, min (Urinary Bladder wall, N = 16): 0.36 Gy/GBq | organ absorbed radiation dose, kidneys (cycle 3, 16 patients imaged at cycle 1 and 3): 0.49±0.19 Gy/GBq | Absorbed Dose in Cycle 3, Mean (in vivo): 0.29 Gy/GBq | Absorbed Dose in Cycle 3, max (in vivo): 0.73 Gy/GBq | Absorbed Dose in Cycle 3, min (in vivo): 0.10 Gy/GBq
